Assay results: the supplement of paper PMC10307832

Legend:
Experiment in all cases: relative viability (nuclei count vs DMSO), 5 days (fraction); higher = more cells survive
AT9283 + Decitabine = compound: O=C(Nc1c[nH]nc1-c1nc2ccc(CN3CCOCC3)cc2[nH]1)NC1CC1 [AT9283] + Nc1ncn([C@H]2C[C@H](O)[C@@H](CO)O2)c(=O)n1 [Decitabine] (partner 2 µM)
How it was run: (§1)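 Relative viability equals treated-well nuclei counts divided by vehicle-well nuclei counts. Counts came from 4× images of lung cancer cell lines grown in 1536-well plates for 5 days after pin-tool dosing on the day after seeding. Dosing used one drug alone or a fixed anchor-drug dose plus five library-drug doses (not always all listed) in √10 steps, and values are medians of duplicate plates.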

Erlotinib + Linsitinib = compound: C#Cc1cccc(Nc2ncnc3cc(OCCOC)c(OCCOC)cc23)c1 [Erlotinib] + C[C@]1(O)C[C@@H](c2nc(-c3ccc4ccc(-c5ccccc5)nc4c3)c3c(N)nccn32)C1 [Linsitinib] (partner 1 µM)
How it was run: as §1

AT9283 + AZD7762 = compound: O=C(Nc1c[nH]nc1-c1nc2ccc(CN3CCOCC3)cc2[nH]1)NC1CC1 [AT9283] + NC(=O)Nc1cc(-c2cccc(F)c2)sc1C(=O)N[C@H]1CCCNC1 [AZD7762] (partner 0.2 µM)
How it was run: as §1

AT9283 + Luminespib = compound: O=C(Nc1c[nH]nc1-c1nc2ccc(CN3CCOCC3)cc2[nH]1)NC1CC1 [AT9283] + CCNC(=O)c1noc(-c2cc(C(C)C)c(O)cc2O)c1-c1ccc(CN2CCOCC2)cc1 [Luminespib] (partner 0.01 µM)
How it was run: as §1

Erlotinib + Phenformin = compound: C#Cc1cccc(Nc2ncnc3cc(OCCOC)c(OCCOC)cc23)c1 [Erlotinib] + N=C(N)NC(=N)NCCc1ccccc1 [Phenformin] (partner 250 µM)
How it was run: as §1

Cell Line	relative viability (AT9283 + Decitabine; first compound 0.003 µM)	relative viability (AT9283 + Decitabine; first compound 0.03 µM)	relative viability (AT9283 + Decitabine; first compound 0.09487 µM)	relative viability (AT9283 + Decitabine; first compound 0.3 µM)	relative viability (Erlotinib + Linsitinib; first compound 0.02 µM)	relative viability (Erlotinib + Linsitinib; first compound 0.2 µM)	relative viability (Erlotinib + Linsitinib; first compound 0.6325 µM)	relative viability (Erlotinib + Linsitinib; first compound 2 µM)	relative viability (AT9283 + AZD7762; first compound 0.003 µM)	relative viability (AT9283 + AZD7762; first compound 0.03 µM)	relative viability (AT9283 + AZD7762; first compound 0.09487 µM)	relative viability (AT9283 + AZD7762; first compound 0.3 µM)	relative viability (AT9283 + Luminespib; first compound 0.003 µM)	relative viability (AT9283 + Luminespib; first compound 0.03 µM)	relative viability (AT9283 + Luminespib; first compound 0.09487 µM)	relative viability (AT9283 + Luminespib; first compound 0.3 µM)	relative viability (Erlotinib + Phenformin; first compound 0.02 µM)	relative viability (Erlotinib + Phenformin; first compound 0.2 µM)	relative viability (Erlotinib + Phenformin; first compound 0.6325 µM)	relative viability (Erlotinib + Phenformin; first compound 2 µM)
H3255	0.577	0.556	0.352	0.222	0.971	0.297	0.188	0.115	0.832	0.746	0.548	0.211	0.713	0.905	0.969	0.254	0.374	0.226	0.246	0.243
NCI-H2085	0.615	0.452	0.419	0.378	0.858	0.728	0.664	0.76	0.968	0.969	0.749	0.353	0.585	0.477	0.403	0.341	0.762	0.493	0.528	0.472
EPLC-272H	0.379	0.395	0.185	0.161	1.11	1.18	1.06	0.802	0.139	0.23	0.104	0.144	0.332	0.246	0.133	0.149	0.353	0.254	0.321	0.212
NCI-H1355	0.341	0.357	0.322	0.195	0.921	0.815	0.723	0.559	0.9	0.568	0.602	0.23	0.6	0.702	0.375	0.239	0.474	0.493	0.458	0.414
BEN	0.52	0.557	0.347	0.347	0.96	0.893	1.16	0.891	0.595	0.62	0.327	0.321	0.28	0.336	0.198	0.107	0.276	0.248	0.273	0.269
NCI-H727	0.697	0.642	0.754	0.517	0.284	0.349	0.282	0.232	0.684	0.574	0.37	0.383	0.253	0.257	0.261	0.281	0.572		0.639	0.404
NCI-H1755	0.712	0.803	0.67	0.527	1.05		0.955	0.976	0.466	0.401	0.326	0.267	0.607	0.446	0.553	0.407	0.614		0.642	0.582
LCLC-103H	0.755	0.774	0.444	0.35	1.1	1.21	1.15	1.01	0.749	0.661	0.554	0.328	0.829	0.755	0.313	0.304	0.335	0.347	0.356	0.289
NCI-H1666	0.6	0.589	0.669	0.534	0.82	0.696	0.62	0.496	0.817	0.685	0.733	0.491	1.03	0.726	0.557	0.499	0.562	0.584	0.522	0.533
LC-2-ad	0.872	0.685	0.471	0.255	0.889	0.823	0.76	0.611	0.848	0.794	0.398	0.227	0.918	0.594	0.357	0.263	0.566	0.643	0.592	0.534
PC-14	0.199	0.157	0.0721	0.0727	0.426	0.289	0.269	0.219	0.341	0.371	0.206	0.0832	0.156	0.15	0.121	0.0746	0.278	0.171	0.177	0.139
201T	0.654	0.849	0.322	0.345	0.968	0.933	1.01	0.854	0.609	0.527	0.45	0.31	0.964	1	0.486	0.378	0.468	0.408	0.465	0.421
NCI-H1651	0.371	0.516	0.428	0.318	0.967	0.996	1.07	0.842	0.43	0.441	0.403	0.213	0.725	0.826	0.773	0.623	0.336	0.316	0.288	0.259
RERF-LC-KJ	0.746	0.477	0.282	0.224	0.914	0.837	0.736	0.565	0.836	0.578	0.387	0.243	1.24	0.792	0.362	0.28	0.393	0.372	0.311	0.337
ABC-1	1.3	0.513	0.346	0.346	0.928	0.674	0.776	0.686	0.83	0.365	1.18	0.229	0.579	0.246	0.275	0.189	0.248	0.248	0.217	0.233
NCI-H1915	0.247	0.26	0.209	0.168	1.15	1.17	1.1	1.08	0.617	0.548	0.334	0.222	0.729	0.751	0.187	0.213	0.398	0.378	0.383	0.35

Cell Line	relative viability (AT9283 + Decitabine; first compound 0.003 µM)	relative viability (AT9283 + Decitabine; first compound 0.03 µM)	relative viability (AT9283 + Decitabine; first compound 0.09487 µM)	relative viability (AT9283 + Decitabine; first compound 0.3 µM)	relative viability (Erlotinib + Linsitinib; first compound 0.02 µM)	relative viability (Erlotinib + Linsitinib; first compound 0.2 µM)	relative viability (Erlotinib + Linsitinib; first compound 0.6325 µM)	relative viability (Erlotinib + Linsitinib; first compound 2 µM)	relative viability (AT9283 + AZD7762; first compound 0.003 µM)	relative viability (AT9283 + AZD7762; first compound 0.03 µM)	relative viability (AT9283 + AZD7762; first compound 0.09487 µM)	relative viability (AT9283 + AZD7762; first compound 0.3 µM)	relative viability (AT9283 + Luminespib; first compound 0.003 µM)	relative viability (AT9283 + Luminespib; first compound 0.03 µM)	relative viability (AT9283 + Luminespib; first compound 0.09487 µM)	relative viability (AT9283 + Luminespib; first compound 0.3 µM)	relative viability (Erlotinib + Phenformin; first compound 0.02 µM)	relative viability (Erlotinib + Phenformin; first compound 0.2 µM)	relative viability (Erlotinib + Phenformin; first compound 0.6325 µM)	relative viability (Erlotinib + Phenformin; first compound 2 µM)
NCI-H1975	0.403	0.432	0.398	0.34	0.954	0.974	0.991		0.7	0.711	0.622	0.458	0.198	0.243	0.215	0.132	0.415	0.377	0.405	0.38
PC-3 [JPC-3]	0.837	0.798	0.695	0.541	0.829	0.461	0.423	0.385	0.826	0.741	0.609	0.394	0.739	0.744	0.473	0.404	0.445	0.367	0.268	0.291
HARA	0.46	0.264	0.165	0.185	1.13	0.834	0.59	0.197	0.315	0.232	0.0942	0.158	0.755	0.189	0.0743	0.124	0.44	0.407	0.444	0.243
NCI-H2347	0.624	0.61	0.471	0.372	1.03	1.04		0.834	0.781	0.676	0.324	0.341	0.364	0.543	0.43	0.231	0.511		0.326	0.326
NCI-H1793	0.498	0.469	0.283	0.266	0.785	0.397	0.767	0.651	0.564	0.495	0.233	0.185	0.194	0.184	0.179	0.136	0.344	0.335	0.287	0.243
LK-2	0.215	0.116	0.113	0.0972	0.557	0.43	0.869	0.377	0.344	0.109	0.0946	0.0986	0.195	0.19	0.176	0.206	0.623	0.275	0.513	0.39
NCI-H358	0.219	0.143	0.102	0.0856	0.817	0.558	0.377	0.292	0.431	0.178	0.186	0.175	0.4	0.147	0.166	0.129	0.349	0.277	0.234	0.178
NCI-H1792	0.499	0.56	0.567	0.345	0.466	0.405	0.525	0.432	0.601	0.647	0.432	0.262	0.264	0.454	0.382	0.229	0.24	0.219	0.207	0.186
NCI-H3122	0.472	0.397	0.296	0.136	1.04	1.06	1.02	0.961	0.958	0.917	0.363	0.17	0.122	0.0841	0.051	0.0606	0.361	0.388	0.392	0.377
LXF-289	0.354	0.423	0.214	0.139	0.966	0.921	0.934	0.874	1.11	0.782	0.141	0.096	0.731	0.742	0.326	0.144	0.54		0.496	0.476
NCI-H2126	0.589	0.625	0.439	0.303		0.597	0.548	0.419	0.979	1.05	0.969	0.339	0.949	0.954	0.826	0.422	0.534	0.464	0.489	0.41
HOP-62	0.212	0.217	0.152	0.165	1.14	0.959	1.01	0.912	0.561	0.143	0.161	0.199	0.916	0.783	0.279	0.292	0.726		0.711	0.689
NCI-H596	1.07	0.946	0.934	0.783	1.03	0.939	1.02	0.789	1.01	1.2	0.976	0.595	1.04	1.08	0.819	0.725	0.745	0.698	0.735	0.688
NCI-H1944	0.415	0.388	0.212	0.267	1.17		0.776	0.642	0.594	0.246	0.184	0.125	0.778	0.483	0.195	0.205	0.199	0.194	0.198	0.172
NCI-H1395	0.819	0.604	0.42	0.385	1.1	1.1	1.23	1.06	0.411	0.361	0.333	0.335	0.639	0.649	0.397	0.418	0.503	0.462	0.483	0.463
NCI-H322M	0.775	0.531	0.588	0.462	0.8	0.727	0.512	0.337	0.554	0.395	0.46	0.487	0.864	0.541	0.405	0.41	0.816	0.592	0.539	0.421
